EP0908457B1, “3-(1,2-benzisothiazol- and isoxazol-5-Y1)-2,4(1H,3H)-pyrimidinedione or thione and 3-(1,2-benzisothiazol- and isoxazol-5-y1)-4(3H)-pyrimidinone or thione herbicidal agents” (BASF AKTIENGESELLSCHAFT, priority 1997, dated 1999)

What was measured:
Assay type in all cases: in vivo
[1] = tested on: Cyperus iria; assay: Preemergence weed control under flooded paddy conditions, CYPIR (Rice Flatsedge); details: preemergence, flooded paddy, rated three to four weeks after treatment
[2] = tested on: Echinochloa oryzoides (Ard.) Fritsch.; assay: Preemergence weed control under flooded paddy conditions, ECHORC (Watergrass (Calif.)); details: preemergence, flooded paddy, rated three to four weeks after treatment
[3] = tested on: Sagittaria pygmaea, L.; assay: Preemergence weed control under flooded paddy conditions, SAGPY (Arrowhead (Pygmaea)); details: preemergence, flooded paddy, rated three to four weeks after treatment
[4] = tested on: Monochoria vaginalis, Presl.; assay: Preemergence weed control under flooded paddy conditions, MOOVA (Monochoria); details: preemergence, flooded paddy, rated three to four weeks after treatment
[5] = tested on: Cyperus serotinus, Rottb.; assay: Preemergence weed control under flooded paddy conditions, CYPSE (Flatsedge); details: preemergence, rated three to four weeks after treatment

COC(CCOc1ccc(C)cc1-c1nsc2ccc(-n3c(=O)cc(C(F)(F)F)n(C)c3=O)cc12)OC [Example 467, Propionaldehyde, 3-{{2-[5-{3,6-dihydro-3-methyl-2,6-dioxo-4-(trifluoromethyl)-1(2H)-pyrimidinyl]-1,2-benzisothiazol-3-yl}-p-tolyl}oxy}-, 1-(dimethylacetal)]
7.0: ECHORC herbicidal rating ([2]; 0.0620 kg/ha) | SAGPY herbicidal rating ([3]; 0.2500 kg/ha) | MOOVA herbicidal rating ([4]; 0.0320 kg/ha) | CYPSE herbicidal rating ([5]; 0.0620 kg/ha)
0.0: SAGPY herbicidal rating ([3]; 0.0320 kg/ha) | SAGPY herbicidal rating ([3]; 0.0620 kg/ha)
6.0: CYPIR herbicidal rating ([1]; 0.1250 kg/ha) | ECHORC herbicidal rating ([2]; 0.0320 kg/ha) | CYPSE herbicidal rating ([5]; 0.0320 kg/ha)
2.0: CYPIR herbicidal rating ([1]; 0.0320 kg/ha)
9.0: CYPIR herbicidal rating ([1]; 0.2500 kg/ha) | ECHORC herbicidal rating ([2]; 0.1250 kg/ha) | ECHORC herbicidal rating ([2]; 0.2500 kg/ha) | MOOVA herbicidal rating ([4]; 0.0620 kg/ha) | MOOVA herbicidal rating ([4]; 0.1250 kg/ha) | MOOVA herbicidal rating ([4]; 0.2500 kg/ha) | CYPSE herbicidal rating ([5]; 0.1250 kg/ha) | CYPSE herbicidal rating ([5]; 0.2500 kg/ha)
3.0: SAGPY herbicidal rating ([3]; 0.1250 kg/ha)
5.0: CYPIR herbicidal rating ([1]; 0.0620 kg/ha)

Cn1c(C(F)(F)F)cc(=O)n(-c2ccc3snc(COC(=O)c4ccncc4)c3c2)c1=O [Example 463, 2,4(1H,3H)-Pyrimidinedione, 3-[3-(hydroxymethyl)-1,2-benzisothiazol-5-yl]-1-methyl-6-(trifluoromethyl)-, isonicotinate (ester)]
5.0: CYPIR herbicidal rating ([1]; 0.0320 kg/ha) | SAGPY herbicidal rating ([3]; 0.1250 kg/ha)
6.0: CYPIR herbicidal rating ([1]; 0.0620 kg/ha) | ECHORC herbicidal rating ([2]; 0.0620 kg/ha) | CYPSE herbicidal rating ([5]; 0.1250 kg/ha)
0.0: SAGPY herbicidal rating ([3]; 0.0320 kg/ha)
3.0: SAGPY herbicidal rating ([3]; 0.0620 kg/ha)
7.0: SAGPY herbicidal rating ([3]; 0.2500 kg/ha) | MOOVA herbicidal rating ([4]; 0.0320 kg/ha) | CYPSE herbicidal rating ([5]; 0.2500 kg/ha)
2.0: ECHORC herbicidal rating ([2]; 0.0320 kg/ha) | CYPSE herbicidal rating ([5]; 0.0320 kg/ha)
9.0: CYPIR herbicidal rating ([1]; 0.1250 kg/ha) | CYPIR herbicidal rating ([1]; 0.2500 kg/ha) | ECHORC herbicidal rating ([2]; 0.1250 kg/ha) | ECHORC herbicidal rating ([2]; 0.2500 kg/ha) | MOOVA herbicidal rating ([4]; 0.0620 kg/ha) | MOOVA herbicidal rating ([4]; 0.1250 kg/ha) | MOOVA herbicidal rating ([4]; 0.2500 kg/ha)

CCC(C)S(=O)(=O)NC(=O)c1nsc2ccc(-n3c(=O)cc(C(F)(F)F)n(C)c3=O)cc12 (stereo not drawn) [Example 395, 1,2-Benzisothiazole-3-carboxamide, 5-[3,6-dihydro-3-methyl-2,6-dioxo-4-(trifluoromethyl)-1(2H)-pyrimidinyl]-N-[(1-methylpropyl)sulfonyl]-]
2.0: herbicidal effect rating, ECHORC ([2]; Rate 0.1250 kg/ha) | herbicidal effect rating, SAGPY ([3]; Rate 0.0620 kg/ha)
4.0: herbicidal effect rating, SAGPY ([3]; Rate 0.1250 kg/ha)
9.0: herbicidal effect rating, MOOVA ([4]; Rate 0.0320 kg/ha) | herbicidal effect rating, MOOVA ([4]; Rate 0.0620 kg/ha) | herbicidal effect rating, MOOVA ([4]; Rate 0.1250 kg/ha) | herbicidal effect rating, MOOVA ([4]; Rate 0.2500 kg/ha)
5.0: herbicidal effect rating, SAGPY ([3]; Rate 0.2500 kg/ha)
3.0: herbicidal effect rating, CYPIR ([1]; Rate 0.2500 kg/ha) | herbicidal effect rating, ECHORC ([2]; Rate 0.2500 kg/ha)
0.0: herbicidal effect rating, CYPIR ([1]; Rate 0.0320 kg/ha) | herbicidal effect rating, CYPIR ([1]; Rate 0.0620 kg/ha) | herbicidal effect rating, CYPIR ([1]; Rate 0.1250 kg/ha) | herbicidal effect rating, ECHORC ([2]; Rate 0.0320 kg/ha) | herbicidal effect rating, ECHORC ([2]; Rate 0.0620 kg/ha) | herbicidal effect rating, SAGPY ([3]; Rate 0.0320 kg/ha) | herbicidal effect rating, CYPSE ([5]; Rate 0.0320 kg/ha) | herbicidal effect rating, CYPSE ([5]; Rate 0.0620 kg/ha) | herbicidal effect rating, CYPSE ([5]; Rate 0.1250 kg/ha) | herbicidal effect rating, CYPSE ([5]; Rate 0.2500 kg/ha)

Cn1c(C(F)(F)F)cc(=O)n(-c2ccc3snc(COC(=O)c4ccccc4)c3c2)c1=O [Example 364, 2,4(1H,3H)-Pyrimidinedione, 3-[3-(hydroxymethyl)-1,2-benzisothiazol-5-yl]-1-methyl-6-(trifluoromethyl)-, benzoate (ester)]
6.0: herbicidal effect rating, ECHORC ([2]; Rate 0.1250 kg/ha) | herbicidal effect rating, ECHORC ([2]; Rate 0.2500 kg/ha) | herbicidal effect rating, CYPSE ([5]; Rate 0.2500 kg/ha)
4.0: herbicidal effect rating, SAGPY ([3]; Rate 0.0320 kg/ha) | herbicidal effect rating, SAGPY ([3]; Rate 0.0620 kg/ha)
9.0: herbicidal effect rating, CYPIR ([1]; Rate 0.1250 kg/ha) | herbicidal effect rating, CYPIR ([1]; Rate 0.2500 kg/ha) | herbicidal effect rating, CYPIR ([1]; Rate 0.5000 kg/ha) | herbicidal effect rating, SAGPY ([3]; Rate 0.2500 kg/ha) | herbicidal effect rating, SAGPY ([3]; Rate 0.5000 kg/ha) | herbicidal effect rating, MOOVA ([4]; Rate 0.0320 kg/ha) | herbicidal effect rating, MOOVA ([4]; Rate 0.0620 kg/ha) | herbicidal effect rating, MOOVA ([4]; Rate 0.1250 kg/ha) | herbicidal effect rating, MOOVA ([4]; Rate 0.2500 kg/ha) | herbicidal effect rating, MOOVA ([4]; Rate 0.5000 kg/ha)
3.0: herbicidal effect rating, ECHORC ([2]; Rate 0.0320 kg/ha) | herbicidal effect rating, CYPSE ([5]; Rate 0.0320 kg/ha) | herbicidal effect rating, CYPSE ([5]; Rate 0.0620 kg/ha)
7.0: herbicidal effect rating, CYPIR ([1]; Rate 0.0320 kg/ha) | herbicidal effect rating, CYPIR ([1]; Rate 0.0620 kg/ha) | herbicidal effect rating, ECHORC ([2]; Rate 0.5000 kg/ha) | herbicidal effect rating, CYPSE ([5]; Rate 0.5000 kg/ha)
5.0: herbicidal effect rating, ECHORC ([2]; Rate 0.0620 kg/ha) | herbicidal effect rating, SAGPY ([3]; Rate 0.1250 kg/ha) | herbicidal effect rating, CYPSE ([5]; Rate 0.1250 kg/ha)
